Results published in the supplement of paper PMC10011410.
± gives the standard deviation of the averaged measurements.

How the values were obtained:
U-2 OS [1] = experiment: total intracellular glutathione (GSH + GSSG) relative to DMSO (% of control); higher = more glutathione; conditions: 24 h
Procedure: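 Total intracellular glutathione (GSH + GSSG) in U-2 OS cells by GSH/GSSG-Glo after 24 h compound treatment at 5, 10 and 20 uM (some at 40 and 80 uM), as percent of DMSO control. Five technical replicate plates, averaged.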

U-2 OS [2] = experiment: cell painting activity score (Mahalanobis distance from DMSO wells); higher = stronger morphological phenotype; conditions: 24 h
Procedure: (§1)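 Cell painting in U-2 OS cells (384-well, about 1,500 cells per well), compound exposure 24 h, usually six 2-fold concentrations from 20 to 0.625 uM (some compounds higher or lower). Relative cell count is the cell number per well relative to DMSO wells. Activity score is the Mahalanobis distance of the morphological profile from DMSO control wells. Mean of four technical replicate plates.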

U-2 OS [3] = experiment: relative cell count vs DMSO (cell painting) (fraction of DMSO control); higher = more cells remaining (less cytotoxic); conditions: 24 h
Procedure: as §1

U-2 OS [4] = experiment: cell viability (CellTiter-Glo) relative to DMSO (% of control); higher = more viable; conditions: 24 h
Procedure: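 Cell viability of U-2 OS cells by CellTiter-Glo after 24 h compound treatment at 5, 10 and 20 uM (some at 40 and 80 uM), measured in parallel with the glutathione assay, as percent of DMSO control. Five technical replicate plates, averaged.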

U-2 OS [5] = experiment: AUC of culture confluence over time (live-cell imaging) (AUC (confluence % x time)); higher = more confluent culture (less growth inhibition)
Procedure: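 Live-cell Incucyte imaging of U-2 OS cells in F-12K medium. Compounds were tested mostly at 5, 10 and 20 uM, and cells were imaged every 4 h for up to 60 h. Value is the area under the curve of phase-contrast confluence over time.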

Compound	total intracellular glutathione (U-2 OS [1]; 5 µM)	total intracellular glutathione (U-2 OS [1]; 10 µM)	total intracellular glutathione (U-2 OS [1]; 20 µM)	total intracellular glutathione (U-2 OS [1]; 40 µM)	total intracellular glutathione (U-2 OS [1]; 80 µM)	cell painting activity score (U-2 OS [2]; 0.625 µM)	cell painting activity score (U-2 OS [2]; 1.25 µM)	cell painting activity score (U-2 OS [2]; 2.5 µM)	cell painting activity score (U-2 OS [2]; 5 µM)	cell painting activity score (U-2 OS [2]; 10 µM)	cell painting activity score (U-2 OS [2]; 20 µM)	relative cell count (U-2 OS [3]; 0.625 µM)	relative cell count (U-2 OS [3]; 1.25 µM)	relative cell count (U-2 OS [3]; 2.5 µM)	relative cell count (U-2 OS [3]; 5 µM)	relative cell count (U-2 OS [3]; 10 µM)	relative cell count (U-2 OS [3]; 20 µM)	cell viability (U-2 OS [4]; 5 µM)	cell viability (U-2 OS [4]; 10 µM)	cell viability (U-2 OS [4]; 20 µM)	cell viability (U-2 OS [4]; 40 µM)	cell viability (U-2 OS [4]; 80 µM)	AUC of culture confluence over time (U-2 OS [5]; 5 µM)	AUC of culture confluence over time (U-2 OS [5]; 10 µM)	AUC of culture confluence over time (U-2 OS [5]; 20 µM)
CCCC[S@](=N)(=O)CC[C@H](N)C(=O)O	19.6 ± 2	16.8 ± 2.1	14.1 ± 1.3	11 ± 1.6	10.7 ± 1	3.99	4.5	4.98	4.52	4	4.46	0.986	1.04	0.992	1.04	1.01	1.06	101 ± 5.1	99.5 ± 3.6	95 ± 4.3	101 ± 6.9	106 ± 4			
O=C1c2ccccc2[Se](=O)N1c1ccccc1 (stereo not given)						5.57	10.4	15.8	17	15.8	13.8	0.985	0.943	0.991	0.954	0.805	0.111						31.5	18.8	18.2
O=c1c(O)c(-c2ccc(O)c(O)c2)oc2cc(O)cc(O)c12						4.42	3.56	5.15	6.18	8.67	12.4	0.954	0.982	0.939	0.962	0.892	0.814						46.5	53.6	50.6
CN(C)C/C=C/C(=O)Nc1cc2c(Nc3ccc(F)c(Cl)c3)ncnc2cc1O[C@H]1CCOC1	101 ± 4.4	110 ± 3.7	105 ± 2.6			8.62	12.1	12.2	11.2	12.6	18.5	0.955	0.955	0.877	0.894	0.538	0.275	63 ± 4	52.4 ± 3.5	47.2 ± 2.5					
C[C@@]12C(=O)OC(=O)[C@]1(C)[C@H]1CC[C@@H]2O1						13.8	14.1	13.8	13.3	13.5	9.67	0.887	0.831	0.869	0.887	0.918	0.792						32.8	33.9	19.5
C[n+]1ccc(-c2cc[n+](CCCCCCCCCC[P+](c3ccccc3)(c3ccccc3)c3ccccc3)cc2)cc1.[I-].[I-].[I-]						3.81	4.65	5.16	5.04	3.72	4.7	0.908	0.96	1	1.01	0.965	0.969						45.2	40	37.1
Nc1ncn([C@H]2C[C@H](O)[C@@H](CO)O2)c(=O)n1						6.05	6.95	6.26	6.61	5.82	5.8	0.973	0.985	0.966	0.935	0.915	0.918						45.9	35.4	37.9
O=C(O)C1=CC(=C(c2ccc(O)c(C(=O)O)c2)c2ccc(O)c(C(=O)O)c2)C=CC1=O						3.58	3.35	3.92	4.33	5.68	5.78	0.992	0.98	0.986	0.968	0.965	0.954						54.3	48.2	54
C[C@@]1(CO)[C@H](O)CC[C@@]2(C)[C@H]1CC[C@H]1C[C@@H]3C[C@@]12CC[C@]3(O)CO						13.5	12.7	14.8	14.8	16.2	15.8	0.886	0.788	0.683	0.659	0.621	0.622						30.1	29	28.6
CC(C)=C[C@@H]1CO[C@]23C[C@]4(CO2)[C@H](CC[C@@H]2[C@@]5(C)CC[C@H](O[C@@H]6OC[C@H](O)[C@H](O[C@@H]7O[C@H](CO)[C@@H](O)[C@H](O)[C@H]7O)[C@H]6O[C@@H]6O[C@@H](CO)[C@H](O)[C@H]6O)C(C)(C)[C@@H]5CC[C@]24C)[C@H]3[C@@]1(C)O						4.86	4.19	6.77	9.86	22.5	29.1	0.956	0.977	1.02	0.762	0.393	0.0257						44.4	15.8	23.9
CC(C)(C)C(=O)OCOc1cccc2ccccc12						4.69	4.3	6.34	5.83	8.37	7.3	1.01	0.983	0.997	0.97	0.974	1.01						45.5	44.2	46.3
O=C(O)CSc1cc(NS(=O)(=O)c2ccc(Br)cc2)c2ccccc2c1O						4.65	5.25	6.44	7.75	8.94	11.1	0.954	0.952	0.961	0.926	0.881	0.694						44	35.2	25.1
CN1C(=O)[C@@]23C[C@]4([C@]56C[C@@]78SS[C@@](CO)(C(=O)N7[C@H]5Nc5ccccc56)N(C)C8=O)c5ccccc5N[C@@H]4N2C(=O)[C@]1(CO)SS3						16.3	21.7	17.3	16.4	7.82	14	0.176	0.0258	0.0235	0.0282	0.0283	0.0118						9.52	13.4	13.8
CNc1nc(-c2ccccc2)[n+](-c2ccccc2)s1						2.89	2.97	3.6	3.74	6.88	14.5	1	1.03	0.994	0.992	0.516	0.0974						36	44.4	42.5
CC(C)(C)C(=O)OCOc1cccc2c1C(=O)C1C3C=CC(CC3)C1C2=O (stereo not given)						5.7	6.22	7.75	8.44	12.8	13.5	0.973	0.963	0.986	0.929	0.787	0.554						37.6	26.3	20
Cn1ncnc2c(=O)n(C)c(=O)nc1-2						14.5	14	15.7	30	30.1	29	0.575	0.386	0.0951	0.0345	0.021	0.0323						16.9	16.5	14.2
Cc1[nH]c2ccccc2c1CCNCc1ccc(/C=C/C(=O)NO)cc1						16.3	16	15.9	15.3	13.8	16.2	0.494	0.472	0.445	0.466	0.474	0.419						16.7	19.5	21
